Experimental data reported in patent US20100022562A1, “Use of Plant Growth Regulators to Reduce Abscisic Acid Related Plant Leaf Yellowing” (priority 2008, published 2010).

Columns and labels:
Pansy plants [1] = test: Pansy shelf life under drought (daily wilting rating, sales index); format: in vivo
Method: (§1) All studies were conducted in the greenhouse at the research farm of Valent BioSciences Corporation (Long Grove, Ill.). Pansy plants were obtained either from local retailers as mature plants, or plugs from wholesale nurseries. Plugs of Pansy plants were transplanted into an 18-cell flat filled with Promix BX (available from Premier Horticulture Inc. Quakertown, Pa.) and grown for about 30 days prior to treatment. During growing periods, plants received daily irrigation and weekly fertilizer (1 g/L all purpose fertilizer 20-20-20, The Scotts Company, Marysville, Ohio).
(§2) Uniform plants were selected for the study. Prior to chemical treatment, plants were saturated with water and then drained for about two hours. A total of 20 mL chemical solution, which is equivalent to about 10% of the cell volume, was applied to each plant with 3 mL solution foliar applied to canopy and 17 mL solution drench applied to root zone. Unless specified, watering of plants was stopped after chemical treatment.
(§3) After chemical treatment, plants were arranged in a randomized complete block experimental design. The plants were rated daily for the extent of wilting on a scale from 1 (no wilting) to 4 (complete wilting) to generated a sales index rating. A rating of 2.5 was the point at which a plant was determined to be unmarketable and the previous day was recorded as the shelf life of that plant in days. Yellow leaf number was counted at 3 days after chemical treatment. Leaf transpiration rate was measured after treatment using a LI-1600 Steady State Porometer (LI-Cor, Lincoln, Nebr.). The transpiration rate of each treatment was calculated as the percentage of that of control at each day to reduce day-to-day variation caused by changes of environmental condition such as light intensity, humidity, and temperature.

Pansy plants [2] = test: Pansy yellow leaf number (leaf yellowing); format: in vivo
Method: as §1, §2
as §3, with “Yellow leaf number was counted at 3 days after chemical treatment.” left out

[3] = 0.3 mg, Matrix Orange, drought, Table 2
[4] = 3 mg, Matrix Orange, drought, Table 2
[5] = 0.3 mg, Matrix Orange, drought, 3 d after treatment, Table 2
[6] = 3 mg, Matrix Orange, drought, 3 d after treatment, Table 2

COC(=O)C=C(C)C#CC1(O)c2ccccc2C(=O)CC1(C)C (mixture of isomers) [PBI-702, tetralone, first carbon tail acetylene, ester]
Shelf life (Pansy plants [1]; [3]): 4.7 days
Shelf life (Pansy plants [1]; [4]): 7.0 days
Yellow leaf number (Pansy plants [2]; [5]): 10.8
Yellow leaf number (Pansy plants [2]; [6]): 11.0

O=C(Nc1ccccc1)Nc1ccnc(Cl)c1 [CPPU, N1-(2-chloro-4-pyridyl)-N3-phenylurea]
Shelf life (Pansy plants [1]; 0.02 mg CPPU, Matrix Yellow, Table 6): 3.2 days
Shelf life (Pansy plants [1]; 0.2 mg CPPU, Matrix Yellow, Table 6): 2.8 days
Yellow leaf number (Pansy plants [2]; 0.02 mg CPPU, Matrix Yellow, 3 d after treatment, Table 6): 7.7
Yellow leaf number (Pansy plants [2]; 0.2 mg CPPU, Matrix Yellow, 3 d after treatment, Table 6): 5.7

COC(=O)C=C(C)C=CC1(O)c2ccccc2C(=O)CC1(C)C (mixture of isomers) [PBI-488, tetralone, ester]
Shelf life (Pansy plants [1]; [3]): 5.3 days
Shelf life (Pansy plants [1]; [4]): 7.0 days
Yellow leaf number (Pansy plants [2]; [5]): 9.2
Yellow leaf number (Pansy plants [2]; [6]): 11.5

COC(=O)C=C(C)C=CC1(O)C(C)=CC(=O)CC1(C)C1CC1 (centres unmarked) [PBI-696, 8′ cyclopropane ester]
Shelf life (Pansy plants [1]; [3]): 5.3 days
Shelf life (Pansy plants [1]; [4]): 7.8 days
Yellow leaf number (Pansy plants [2]; [5]): 9.0

C#CC1(C)CC(=O)C=C(C)C1(O)C=CC(C)=CC(=O)O (centres unmarked) [PBI-524, 8′ acetylene-ABA, acid]
Shelf life (Pansy plants [1]; [3]): 6.5 days
Shelf life (Pansy plants [1]; [4]): 8.8 days
Yellow leaf number (Pansy plants [2]; [5]): 11.0
Yellow leaf number (Pansy plants [2]; [6]): 11.2

CCOC(=O)C1CC(=O)C(=C(O)C2CC2)C(=O)C1 (centres unmarked) [TE, trinexapac-ethyl]
Shelf life (Pansy plants [1]; 30 mg, Matrix Yellow, drought, Table 10): 2.5 days
Yellow leaf number (Pansy plants [2]; 30 mg, Matrix Yellow, drought, 3 d after treatment, Table 10): 8.7

CC1=CC1 [MCP, 1-methylcyclopropene]
Shelf life (Pansy plants [1]; 10 μL L^−1 MCP (12 hours) at 0 hrs, Delta Premium Pure White, Table 22): 4.0 days
Shelf life (Pansy plants [1]; 10 μL L^−1 MCP (12 hours) at +24 hrs, Delta Premium Pure White, Table 22): 4.0 days
Shelf life (Pansy plants [1]; 10 μL L^−1 MCP (12 hours) at −24 hrs, Delta Premium Pure White, Table 22): 4.0 days
Shelf life (Pansy plants [1]; 10 μL L^−1 MCP for 12 hours, Colossus Formula Mix, no water, Table 20): 4.2 days
Shelf life (Pansy plants [1]; 10 μL L^−1 MCP for 24 hours, Delta Premium Pure White, Table 21): 7.0 days
Shelf life (Pansy plants [1]; 10 μL L^−1 MCP, Delta Premium Pure White, Table 23): 4.5 days
Yellow leaf number (Pansy plants [2]; 10 μL L^−1 MCP (12 hours) at 0 hrs, Delta Premium Pure White, 3 days after treatment, Table 22): 1.8
Yellow leaf number (Pansy plants [2]; 10 μL L^−1 MCP (12 hours) at 0 hrs, Delta Premium Pure White, 7 days after treatment, Table 22): 4.0
Yellow leaf number (Pansy plants [2]; 10 μL L^−1 MCP (12 hours) at +24 hrs, Delta Premium Pure White, 3 days after treatment, Table 22): 2.2
Yellow leaf number (Pansy plants [2]; 10 μL L^−1 MCP (12 hours) at +24 hrs, Delta Premium Pure White, 7 days after treatment, Table 22): 4.0
Yellow leaf number (Pansy plants [2]; 10 μL L^−1 MCP (12 hours) at −24 hrs, Delta Premium Pure White, 3 days after treatment, Table 22): 2.0
Yellow leaf number (Pansy plants [2]; 10 μL L^−1 MCP (12 hours) at −24 hrs, Delta Premium Pure White, 7 days after treatment, Table 22): 4.0
Yellow leaf number (Pansy plants [2]; 10 μL L^−1 MCP for 12 hours, Colossus Formula Mix, 3 days after treatment, Table 20): 0.2
Yellow leaf number (Pansy plants [2]; 10 μL L^−1 MCP for 12 hours, Colossus Formula Mix, 8 days after treatment, Table 20): 1.7
Yellow leaf number (Pansy plants [2]; 10 μL L^−1 MCP for 24 hours, Delta Premium Pure White, 3 days after treatment, Table 21): 0.0
Yellow leaf number (Pansy plants [2]; 10 μL L^−1 MCP for 24 hours, Delta Premium Pure White, 8 days after treatment, Table 21): 0.7
Yellow leaf number (Pansy plants [2]; 10 μL L^−1 MCP, Delta Premium Pure White, 3 days after treatment, Table 23): 3.2
Yellow leaf number (Pansy plants [2]; 10 μL L^−1 MCP, Delta Premium Pure White, 7 days after treatment, Table 23): 6.7

C/C(C#C[C@]1(O)C(C)CC(=O)CC1(C)C)=C/CO (some centres unmarked) [PBI-51]
Shelf life (Pansy plants [1]; 3 mg, Delta Premium Pure Golden Yellow, advanced seedling stage (1 month old), drought, Table 4): 3.7 days
Shelf life (Pansy plants [1]; 3 mg, Delta Premium Pure Golden Yellow, drought, Table 3): 5.0 days
Shelf life (Pansy plants [1]; 30 mg, Delta Premium Pure Golden Yellow, advanced seedling stage (1 month old), drought, Table 4): 3.5 days
Shelf life (Pansy plants [1]; 30 mg, Delta Premium Pure Golden Yellow, drought, Table 3): 5.0 days
Yellow leaf number (Pansy plants [2]; 3 mg, Delta Premium Pure Golden Yellow, advanced seedling stage (1 month old), drought, 3 d after treatment, Table 4): 8.2
Yellow leaf number (Pansy plants [2]; 3 mg, Delta Premium Pure Golden Yellow, drought, 3 d after treatment, Table 3): 7.5
Yellow leaf number (Pansy plants [2]; 30 mg, Delta Premium Pure Golden Yellow, advanced seedling stage (1 month old), drought, 3 d after treatment, Table 4): 8.8
Yellow leaf number (Pansy plants [2]; 30 mg, Delta Premium Pure Golden Yellow, drought, 3 d after treatment, Table 3): 8.0
